Data on 26 compounds can be found in US5169838A, “Benzopyranone-β-D-thioxylosides and their use in therapy” (Fournier Industrie et Sante, priority 1989, dated 1992).

A short description of this experiment: venous thrombosis (venous stasis under hypercoagulation with activated factor X, Wessler technique). The experiment is classed as in vivo, male Wistar rats. The following applies: po, administered orally, rat, thrombosis induced 4 hours after treatment, thrombus weighed. As for the experimental part: The study is performed on unfasted male Wistar rats weighing 250 to 280 g, divided up into groups of 10 animals each. The test products are administered orally as a suspension in PEG 400. A thrombosis is induced 4 hours after this treatment and the thrombus formed is removed and weighed.
The inhibition in vivo is the percentage by which the read-out fell short of the control. A lower inhibition in vivo goes with a response near the control. For `CCc1cc(=O)oc2cc(O[C@@H]3SC[C@@H](O)[C@H](O)[C@H]3O)ccc12` [Example 1, 4-ethyl-2-oxo-2H-1-benzopyran-7-yl 5-thio-β-D-xylopyranoside], the inhibition in vivo at 3 mg/kg worked out at 87%.
Regarding `CCc1cc(=O)oc2cc(O[C@@H]3SC[C@@H](OC(C)=O)[C@H](OC(C)=O)[C@H]3OC(C)=O)ccc12` [Example 1a, 4-ethyl-2-oxo-2H-1-benzopyran-7-yl 2,3,4-tri-O-acetyl-5-thio-β-D-xylopyranoside], the inhibition in vivo at 3 mg/kg was 65%.
The compound `Cc1cc(=O)oc2ccc(O[C@@H]3SC[C@@H](O)[C@H](O)[C@H]3O)cc12` [Example 2, 4-methyl-2-oxo-2H-1-benzopyran-6-yl 5-thio-β-D-xylopyranoside] displayed an inhibition in vivo at 3 mg/kg of 81%.
As for `CC(=O)O[C@@H]1[C@@H](OC(C)=O)[C@H](OC(C)=O)CS[C@H]1Oc1ccc2oc(=O)cc(C)c2c1` [Example 2a, 4-methyl-2-oxo-2H-1-benzopyran-6-yl 2,3,4-tri-O-acetyl-5-thio-β-D-xylopyranoside], the figure is 53%; as for `O=c1cc(C(F)(F)F)c2ccc(O[C@@H]3SC[C@@H](O)[C@H](O)[C@H]3O)cc2o1` [Example 3, 4-trifluoromethyl-2-oxo-2H-1-benzopyran-7-yl 5-thio-β-D-xylopyranoside], 80%.
With `CC(=O)O[C@@H]1[C@@H](OC(C)=O)[C@H](OC(C)=O)CS[C@H]1Oc1ccc2c(C(F)(F)F)cc(=O)oc2c1` [Example 3a, 4-trifluoromethyl-2-oxo-2H-1-benzopyran-7-yl 2,3,4-tri-O-acetyl-5-thio-β-D-xylopyranoside] the figure was 47%; with `Cc1cc(=O)oc2c(O[C@@H]3SC[C@@H](O)[C@H](O)[C@H]3O)cccc12` [Example 4, 4-methyl-2-oxo-2H-1-benzopyran-8-yl 5-thio-β-D-xylopyranoside], 52%.
As for `CC(=O)O[C@@H]1[C@@H](OC(C)=O)[C@H](OC(C)=O)CS[C@H]1Oc1cccc2c(C)cc(=O)oc12` [Example 4a, 4-methyl-2-oxo-2H-1-benzopyran-8-yl 2,3,4-tri-O-acetyl-5-thio-β-D-xylopyranoside], the figure is 51%.
Consider `CCCc1cc(=O)oc2cc(O[C@@H]3SC[C@@H](O)[C@H](O)[C@H]3O)ccc12` [Example 5, 2-oxo-4-propyl-2H-1-benzopyran-7-yl 5-thio-β-D-xylopyranoside], for which the inhibition in vivo at 3 mg/kg is 26%.
Compound `CCCc1cc(=O)oc2cc(O[C@@H]3SC[C@@H](OC(C)=O)[C@H](OC(C)=O)[C@H]3OC(C)=O)ccc12` [Example 5a, 2-oxo-4-propyl-2H-1-benzopyran-7-yl 2,3,4-tri-O-acetyl-5-thio-β-D-xylopyranoside] displayed an inhibition in vivo at 3 mg/kg of 46%.
`Cc1cc(=O)oc2cccc(O[C@@H]3SC[C@@H](O)[C@H](O)[C@H]3O)c12` [Example 6, 4-methyl-2-oxo-2H-1-benzopyran-5-yl 5-thio-β-D-xylopyranoside] registered an inhibition in vivo at 3 mg/kg of 42%.
As for `Cc1cc(=O)oc2cccc(S[C@@H]3SC[C@@H](O)[C@H](O)[C@H]3O)c12` [Example 7, 4-methyl-2-oxo-2H-1-benzopyran-5-yl 1,5-dithio-β-D-xylopyranoside], the figure is 38%; as for `Cc1cc(=O)oc2cc(S[C@@H]3SC[C@@H](O)[C@H](O)[C@H]3O)ccc12` [Example 8, 4-methyl-2-oxo-2H-1-benzopyran-7-yl 1,5-dithio-β-D-xylopyranoside], 46%; as for `CC(=O)O[C@@H]1[C@@H](OC(C)=O)[C@H](Sc2ccc3c(C)cc(=O)oc3c2)SC[C@H]1OC(C)=O` [Example 8a, 4-methyl-2-oxo-2H-1-benzopyran-7-yl 2,3,4-tri-O-acetyl-1,5-dithio-β-D-xylopyranoside], 65%.
As for `Cc1cc(=O)oc2c(S[C@@H]3SC[C@@H](O)[C@H](O)[C@H]3O)cccc12` [Example 9, 4-methyl-2-oxo-2H-1-benzopyran-8-yl 1,5-dithio-β-D-xylopyranoside], the figure is 31%; as for `Cc1cc(=O)oc2ccc(S[C@@H]3SC[C@@H](O)[C@H](O)[C@H]3O)cc12` [Example 10, 4-methyl-2-oxo-2H-1-benzopyran-6-yl 1,5-dithio-β-D-xylopyranoside], 37%; as for `CC(=O)O[C@@H]1[C@@H](OC(C)=O)[C@H](Sc2ccc3oc(=O)cc(C)c3c2)SC[C@H]1OC(C)=O` [Example 10a, 4-methyl-2-oxo-2H-1-benzopyran-6-yl 2,3,4-tri-O-acetyl-1,5-dithio-β-D-xylopyranoside], 32%.
With `O=c1cc(C(F)(F)F)c2ccc(S[C@@H]3SC[C@@H](O)[C@H](O)[C@H]3O)cc2o1` [Example 11, 4-trifluoromethyl-2-oxo-2H-1-benzopyran-7-yl 1,5-dithio-β-D-xylopyranoside] the figure was 36%; with `Cc1c(Cl)c(=O)oc2cc(S[C@@H]3SC[C@@H](O)[C@H](O)[C@H]3O)ccc12` [Example 12, 3-chloro-4-methyl-2-oxo-2H-1-benzopyran-7-yl 1,5-dithio-β-D-xylopyranoside], 65%.
The compound `CC(=O)O[C@@H]1[C@@H](OC(C)=O)[C@H](Sc2ccc3c(C)c(Cl)c(=O)oc3c2)SC[C@H]1OC(C)=O` [Example 12a, 3-chloro-4-methyl-2-oxo-2H-1-benzopyran-7-yl 2,3,4-tri-O-acetyl-1,5-dithio-β-D-xylopyranoside] yielded an inhibition in vivo at 3 mg/kg of 32%.
The compound `CCc1cc(=O)oc2cc(S[C@@H]3SC[C@@H](O)[C@H](O)[C@H]3O)ccc12` [Example 13, 4-ethyl-2-oxo-2H-1-benzopyran-7-yl 1,5-dithio-β-D-xylopyranoside] showed an inhibition in vivo at 3 mg/kg of 54%.
With `CCc1cc(=O)oc2cc(S[C@@H]3SC[C@@H](OC(C)=O)[C@H](OC(C)=O)[C@H]3OC(C)=O)ccc12` [Example 13a, 4-ethyl-2-oxo-2H-1-benzopyran-7-yl 2,3,4-tri-O-acetyl-1,5-dithio-β-D-xylopyranoside] the figure was 58%.
With `CCCc1cc(=O)oc2cc(S[C@@H]3SC[C@@H](O)[C@H](O)[C@H]3O)ccc12` [Example 14, 2-oxo-4-propyl-2H-1-benzopyran-7-yl 1,5-dithio-β-D-xylopyranoside] the figure was 43%; with `CCCc1cc(=O)oc2cc(S[C@@H]3SC[C@@H](OC(C)=O)[C@H](OC(C)=O)[C@H]3OC(C)=O)ccc12` [Example 14a, 2-oxo-4-propyl-2H-1-benzopyran-7-yl 2,3,4-tri-O-acetyl-1,5-dithio-β-D-xylopyranoside], 25%; with `O=c1oc2cc(S[C@@H]3SC[C@@H](O)[C@H](O)[C@H]3O)ccc2c2c1CCCC2` [Example 15, 7,8,9,10-tetrahydro-6-oxo-6H-dibenzo[b,d]pyran-3-yl 1,5-dithio-β-D-xylopyranoside], 31%.
As for `CC(=O)O[C@@H]1[C@@H](OC(C)=O)[C@H](Sc2ccc3c4c(c(=O)oc3c2)CCCC4)SC[C@H]1OC(C)=O` [Example 15a, 7,8,9,10-tetrahydro-6-oxo-6H-dibenzo[b,d]pyran-3-yl 2,3,4-tri-O-acetyl-1,5-dithio-β-D-xylopyranoside], the figure is 23%.
